Where a name gives a salt, the structure may show the parent alone.
Target: T1, Bacteriorhodopsin (bR) (Halobacterium salinarum, UniProt P02945)
T1 construct: extract bR from the native purple membrane; endogenous in cells
T1 sequence (P02945 14-261 limits assumed): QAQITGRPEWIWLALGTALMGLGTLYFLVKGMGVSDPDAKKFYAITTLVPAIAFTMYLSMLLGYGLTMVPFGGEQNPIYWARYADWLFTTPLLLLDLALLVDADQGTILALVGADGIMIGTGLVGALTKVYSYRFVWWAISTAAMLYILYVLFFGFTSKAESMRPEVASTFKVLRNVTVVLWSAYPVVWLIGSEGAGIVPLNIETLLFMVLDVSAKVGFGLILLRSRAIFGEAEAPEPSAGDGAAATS
Experiment: Stabilization assay for bacteriorhodopsin (absorbance at 554 nm)
Conditions: day 20, room temperature, 0.2 wt % OTG+0.8 wt % TFA
Description: Bacteriorhodopsin (bR) has been widely employed for assessment of new amphiphiles because this membrane protein is readily available, and stability can be assessed via spectrophotometry (absorbance at 554 nm). Following standard protocols (Bazzacco et al., Biomacromolecules 2009, 10, 3317-3326), 2.0 wt % octyl-β-D-thioglucoside (OTG) was used to extract bR from the native purple membrane. After removal of insoluble debris via ultracentrifugation, the bR solution was diluted with amphiphile-containing solutions to generate samples containing 0.2 wt % OTG+0.8 wt % TFA. A control sample had OTG added to give a total of 1.0 wt %. […] Parallel studies were carried out at different amphiphile concentrations as described in Example 3 below. DDM is not efficient at bR extraction from the native membrane but extracted bR can be stable in the presence of DDM (Milder et al., Biochemistry 1991, 30, 1751-1761).
The general procedure was followed according to the reported protocol of Bazzacco et al. (Biomacromolecules 10, 3317-3326 (2009)). Frozen aliquots of purple membranes containing bR at 184 μM were thawed and solubilized by incubation with octylthioglucoside (OTG) for 24 hr at 4° C. in a dark room. For the solubilization, OTG (CMC=0.28 wt %) was used at 2.0 wt % in 10 mM sodium phosphate (pH 6.9). […] BR stability in each TFA solutions was monitored by measuring absorbance at 554 nm for 20 days.

C[C@H](CCC(=O)N(C)CCCN(C)C(=O)CC[C@@H](C)[C@H]1CC[C@H]2[C@@H]3CC[C@@H]4C[C@H](O[C@@H]5O[C@H](CO)[C@@H](O[C@H]6O[C@H](CO)[C@@H](O)[C@H](O)[C@H]6O)[C@H](O)[C@H]5O)CC[C@]4(C)[C@H]3C[C@H](O[C@@H]3O[C@H](CO)[C@@H](O[C@H]4O[C@H](CO)[C@@H](O)[C@H](O)[C@H]4O)[C@H](O)[C@H]3O)[C@]12C)[C@H]1CC[C@H]2[C@@H]3CC[C@@H]4C[C@H](O[C@@H]5O[C@H](CO)[C@@H](O[C@H]6O[C@H](CO)[C@@H](O)[C@H](O)[C@H]6O)[C@H](O)[C@H]5O)CC[C@]4(C)[C@H]3C[C@H](O[C@@H]3O[C@H](CO)[C@@H](O[C@H]4O[C@H](CO)[C@@H](O)[C@H](O)[C@H]4O)[C@H](O)[C@H]3O)[C@]12C [TFA-1]
bR intact: ~80%
